Assays:
Assay in all cases: Herbicidal post-emergence action
Format in all cases: in vivo
AVEFA = details: 100 g/ha, visual assessment after about three weeks, 100% = plants have died
SETVI = details: 504 h, visual assessment after about three weeks, 100% = plants have died, read-out: herbicidal effect in percent, SETVI
PHAMI = details: 100 g/ha, visual assessment after about three weeks, 100% = plants have died
Procedure: (§1) 2. Herbicidal Post-Emergence Action
(§2) • Seeds of monocotylidonous and dicotylidonous weed and crop plants are placed in sandy loam in wood fibre pots, covered with soil and cultivated in a greenhouse under good growth conditions. Two to three weeks after sowing, the test plants are treated at the one-leaf stage. The test compounds, formulated as wettable powders (WP), are then with a water application rate of 600 l/ha (converted), with 0.2% of wetting agent added, sprayed onto the green parts of the plants in different amounts. After the test plants have been kept in the greenhouse under optimum growth conditions for about three weeks, the effect of the preparations is assessed visually in comparison to untreated controls (herbicidal effect in percent: 100% effect=the plants have died, 0% effect=like control plants). […]

APESV = details: 100 g/ha, visual assessment after about three weeks, 100% = plants have died
Procedure: as §1, §2

POAAN = details: 100 g/ha, visual assessment after about three weeks, 100% = plants have died
Procedure: as §1, §2

CCOC(=O)OC1=C(c2c(CC)cc(C)cc2CC)C(=O)C2CC(C(OC)OC)CC12 (centres unmarked) [I-c-1, 2-(2,6-Diethyl-4-methylphenyl)-5-(dimethoxymethyl)-3-oxo-3,3a,4,5,6,6a-hexahydropentalen-1-yl ethyl carbonate] was tested, and the “herbicidal effect in percent, AVEFA” value (AVEFA) was 80%, the pest or weed control at 100 g/ha (SETVI) was 97% and the “herbicidal effect in percent, PHAMI” value (PHAMI) was 99%. The “herbicidal effect in percent, APESV” value (APESV) was 100% and the “herbicidal effect in percent, POAAN” value (POAAN) was 85%.
